Residues, ends and D or L forms follow the SMILES beside them.
Experiments:
[1] = parameters: method as in PMID 25046994; settings: cited from earlier work
[2] = parameters: method as in PMID 25046994; settings: over 120 min; cited from earlier work
[3] = parameters: method as in PMID 25046994; settings: cited from earlier work; remark: listed apart in the source
[4] = parameters: method as in PMID 25046994; settings: over 30 min; cited from earlier work
[5] = system: 3 × Tg-AD mice; test: Side effects and safety during chronic dietary treatment; format: in vivo, mouse; settings: 60 nmol P021/g feed in diet
Protocol: At approximately 3 months of age, the animals were divided into three groups: one group of 3 × Tg-AD-P021 (n = 32) treated with 60 nmol P021/g feed in the diet; a second group of 3 × Tg-AD-vh (n = 35) treated with the same diet but without P021; and a third group of WT (n = 41) treated with the same diet but without P021. P021 was formulated by Research Diets (New Brunswick, NJ, USA). Food consumption was recorded every 2 weeks and body weight every month. The average mouse food consumption was ~2.7 g feed/day.

CC(=O)N[C@@H](CC(=O)O)C(=O)NCC(=O)NCC(=O)N[C@@H](CC(C)C)C(=O)NC12CC3CC(C1)CC(C(N)=O)(C3)C2 [Peptide P021] (HELM PEPTIDE1{[ac].D.G.G.L.[NC(=O)C12CC3CC(CC(N[*:1])(C3)C1)C2]}$$$$V2.0)
blood–brain barrier permeability [1]: blood–brain barrier permeable | stability in intestinal fluid [2]: ~ 100% | plasma stability [3]: > 3 h | stability in artificial gastric juice [4]: > 95% | side effects or safety issues ([5]; preclinical study of almost 2 years): did not show any severe side effects or safety issues | weight loss, tumors, or signs of pain ([5]; treatment for around 18 months): did not show any weight loss, tumors, or signs of pain
